Holding throughout (assay type): cell-based
For assay [1], the system named is Rhizoctonia solani. The experiment in a line: Inhibition test of mycelial growth against the genus Rhizoctonia (PSA plate). Particulars: compound alone, 20° C., 4 days. How it is done:
A mycangium (diameter: 4 mm) obtained by precultivation was transplanted on PSA containing a chemical in a prescribed concentration and then cultured at room temperature of 20° C. for 4 days, followed by measuring a diameter of the grown mycangium to determine an inhibition rate of mycelial growth (%). In addition, an expected value of the inhibition rate calculated according to the Colby's formula in the same manner as that in the foregoing Test Example 1 was listed in parentheses of Tables 4 to 6.

For assay [2], the system named is Pythium graminicola. The experiment in a line: Inhibition test of mycelial growth against the genus Pythium (PSA plate). Particulars: compound alone, 20° C., 3 days. How it is done:
A mycangium (diameter: 4 mm) obtained by precultivation was transplanted on PSA containing a chemical in a prescribed concentration and then cultured at room temperature of 20° C. for 3 days, followed by measuring a diameter of the grown mycangium to determine an inhibition rate of mycelial growth (%). In addition, an expected value of the inhibition rate was calculated according to the following Colby's formula and listed in parentheses of Tables 1 to 3. […] Colby's formula: x+y−xy/100 x: Inhibition rate of growth of the component (a) alone (%) y: Inhibition rate of growth of the component (b) alone (%)

Assay [3] has as its system Botrytis cinerea. The experiment in a line: Inhibition test of mycelial growth against gray mold (YS liquid medium, 96-well microplate). Particulars: compound alone, 25° C., three days. How it is done: On a YS (yeast extract+sucrose) liquid culture medium, a certain amount of a chemical solution prepared such that a final concentration of each chemical became a concentration at which the test was carried out was mixed. 100 μL of each of the chemical-containing YS liquid culture media was aliquoted into each well of a 96-well microplate. Thereafter, 50 μL of a spore suspension of gray mold whose spore concentration had been prepared as shown in the following tables was aliquoted into each well and cultivated at 25° C. under a light-dark cycle (light period: 16 hours, dark period: 8 hours). Three days after the cultivation, an area of the well bottom covered by the propagated gray mold hyphae was microscopically examined to determine an inhibition rate of growth (%). The inhibition rate of growth was visually examined while defining an area covered by hyphae in a non-treated well as 100. For the non-treatment, a chemical-free YS liquid culture medium was used. In addition, an expected value of the inhibition rate calculated according to the Colby's formula in the same manner as that in the foregoing Test Example 1 was listed in parentheses of Tables 7 to 13.

Where [4] appears, read: Rhizoctonia solani, 96 h, 0.1 ppm, read-out: Inhibition Rate of Mycelial Growth against Rhizoctonia solani (%).
Setting [5] is: Rhizoctonia solani, 96 h, 1 ppm, read-out: Inhibition Rate of Mycelial Growth against Rhizoctonia solani (%).
[6] abbreviates: Rhizoctonia solani, 96 h, 10 ppm, read-out: Inhibition Rate of Mycelial Growth against Rhizoctonia solani (%).
[7] abbreviates: Pythium graminicola, 72 h, read-out: Inhibition Rate of Mycelial Growth against Pythium graminicola (%).
Setting [8] is: Pythium graminicola, 72 h, 10 ppm, read-out: Inhibition Rate of Mycelial Growth against Pythium graminicola (%).
Setting [9] is: Pythium graminicola, 72 h, 100 ppm, read-out: Inhibition Rate of Mycelial Growth against Pythium graminicola (%).
Where [10] appears, read: Botrytis cinerea, 72 h, read-out: Inhibition Rate of Mycelial Growth against Botrytis cinerea (%).
Where [11] appears, read: Botrytis cinerea, 72 h, 0.78 ppm, read-out: Inhibition Rate of Mycelial Growth against Botrytis cinerea (%).
The mark [12] stands for this setting: Botrytis cinerea, 72 h, 1.56 ppm, read-out: Inhibition Rate of Mycelial Growth against Botrytis cinerea (%).

Results on 8 compounds are retold here after patent US9167815B2, “Agricultural or horticultural fungicide composition and method for controlling plant pathogen” (ISHIHARA SANGYO KAISHA, LTD., priority 2011, dated 2015).

Usually inhibition stands for the share of the control response that was lost under treatment. As for `CO/N=C(/C(=O)OC)c1ccccc1COc1ccccc1C` [kresoxim-methyl], the inhibition at 0.1 ppm in assay [1] (setting [4]) came out at 30%. The inhibition at 1 ppm was 39% in assay [1] (setting [5]) and 56% in assay [2] (setting [7]). For the same compound, the inhibition at 10 ppm in assay [1] (setting [6]) was found to be 42%; in assay [2] (setting [8]) it was 73%. The inhibition at 100 ppm in assay [2] (setting [9]) was found to be 62%. Moreover, the inhibition at 3.13 ppm in assay [3] (Botrytis cinerea, 72 h, 3.13 ppm, read-out: Inhibition Rate of Mycelial Growth against Botrytis cinerea (%)) was 0%. Besides, in assay [3] (Botrytis cinerea, 72 h, 6.25 ppm, read-out: Inhibition Rate of Mycelial Growth against Botrytis cinerea (%)), the inhibition at 6.25 ppm stood at 1%. For the same compound, in assay [3] (Botrytis cinerea, 72 h, 12.5 ppm, read-out: Inhibition Rate of Mycelial Growth against Botrytis cinerea (%)), the inhibition at 12.5 ppm turned out to be 1%.

For the compound `O=[N+]([O-])c1cc(C(F)(F)F)c(Cl)c([N+](=O)[O-])c1Nc1ncc(C(F)(F)F)cc1Cl` [fluazinam, 3-chloro-N-(3-chloro-5-trifluoromethyl-2-pyridyl)-α,α,α-trifluoro-2,6-dinitro-p-toluidine], the inhibition at 0.1 ppm in assay [1] (setting [4]) stood at 70%; in assay [2] (Pythium graminicola, 72 h, 0.1 ppm, read-out: Inhibition Rate of Mycelial Growth against Pythium graminicola (%)), 32%. The inhibition at 1 ppm in assay [1] (setting [5]) was determined as 77%; in assay [2] (setting [7]) it was 48%. The inhibition at 10 ppm worked out at 85% in assay [1] (setting [6]) and 60% in assay [2] (setting [8]). Also, the inhibition at 100 ppm is 87% in assay [1] (Rhizoctonia solani, 96 h, 100 ppm, read-out: Inhibition Rate of Mycelial Growth against Rhizoctonia solani (%)) and 66% in assay [2] (setting [9]). Moreover, the inhibition at 0.04 ppm in assay [3] (Botrytis cinerea, 72 h, 0.04 ppm, read-out: Inhibition Rate of Mycelial Growth against Botrytis cinerea (%)) amounted to 0%. For the same compound, the inhibition at 0.08 ppm in assay [3] (Botrytis cinerea, 72 h, 0.08 ppm, read-out: Inhibition Rate of Mycelial Growth against Botrytis cinerea (%)) was 0%. The inhibition at 0.16 ppm in assay [3] (Botrytis cinerea, 72 h, 0.16 ppm, read-out: Inhibition Rate of Mycelial Growth against Botrytis cinerea (%)) stood at 80%.

With `COC(=O)N(OC)c1ccccc1COc1ccn(-c2ccc(Cl)cc2)n1` [pyraclostrobin], in assay [1] (setting [4]), the inhibition at 0.1 ppm worked out at 26%. Besides, the inhibition at 1 ppm in assay [1] (setting [5]) amounted to 55%; in assay [2] (setting [7]), 83%. Besides, the inhibition at 10 ppm in assay [1] (setting [6]) was 67%; in assay [2] (setting [8]), 100%. Further, in assay [2] (setting [9]), the inhibition at 100 ppm is 100%. For the same compound, the inhibition at 0.39 ppm in assay [3] (setting [10]) was found to be 0%. The inhibition at 0.78 ppm in assay [3] (setting [11]) was found to be 1%. The inhibition at 1.56 ppm in assay [3] (setting [12]) is 5%.

For the compound `CO/C=C(/C(=O)OC)c1ccccc1COc1cccc(C(F)(F)F)n1` [picoxystrobin], the “Inhibition Rate of Mycelial Growth against Botrytis cinerea (%)” value in assay [3] (6.25 ppm) is 1%; in assay [3] (12.5 ppm) it was 2%; in assay [3] (25 ppm), 3%.

Consider `CNC(=O)/C(=N/OC)c1ccccc1COc1cc(C)ccc1C` [dimoxystrobin], for which the “Inhibition Rate of Mycelial Growth against Botrytis cinerea (%)” value in assay [3] (0.78 ppm), in assay [3] (1.56 ppm) and in assay [3] (3.13 ppm) was 0% each time.

With `CO/C=C(/C(=O)OC)c1ccccc1Oc1cc(Oc2ccccc2C#N)ncn1` [azoxystrobin], the “Inhibition Rate of Mycelial Growth against Rhizoctonia solani (%)” value was determined as 4% in assay [1] (0.1 ppm), 27% in assay [1] (1 ppm) and 41% in assay [1] (10 ppm). The “Inhibition Rate of Mycelial Growth against Pythium graminicola (%)” value in assay [2] (10 ppm) was 89%; in assay [2] (100 ppm) it was 100%. In addition, the “Inhibition Rate of Mycelial Growth against Botrytis cinerea (%)” value in assay [3] (3.13 ppm) is on record as 0%; in assay [3] (6.25 ppm), 0%; in assay [3] (12.5 ppm), 1%.

Regarding `CNC(=O)/C(=N/OC)c1ccccc1Oc1ccccc1` [metominostrobin], the inhibition at 25 ppm in assay [3] (Botrytis cinerea, 72 h, 25 ppm, read-out: Inhibition Rate of Mycelial Growth against Botrytis cinerea (%)) worked out at 0%. Also, in assay [3] (Botrytis cinerea, 72 h, 50 ppm, read-out: Inhibition Rate of Mycelial Growth against Botrytis cinerea (%)), the inhibition at 50 ppm was 1%. Moreover, the inhibition at 100 ppm in assay [3] (Botrytis cinerea, 72 h, 100 ppm, read-out: Inhibition Rate of Mycelial Growth against Botrytis cinerea (%)) was 3%.

For `CON=C(C(=O)OC)c1ccccc1CON=C(C)c1cccc(C(F)(F)F)c1` [trifloxystrobin], the inhibition at 0.39 ppm in assay [3] (setting [10]) is 0%. For the same compound, the inhibition at 0.78 ppm in assay [3] (setting [11]) is 0%. Moreover, the inhibition at 1.56 ppm in assay [3] (setting [12]) amounted to 0%.
